{"source": "patent US11214803B2", "about": "“Modulators of YAP1 expression” (Ionis Pharmaceuticals, Inc., priority 2019, dated 2022)", "assay_type_in_all_cases": "cell-based, human", "key": {"Yap1 mRNA [1]": {"system": "Yap1 mRNA", "experiment": "Yap1 mRNA in NCI H292 cells, RNA analysis (Example 32)", "settings": "free uptake, approximately 48 hours", "procedure": "Modified oligonucleotides described in the studies above were tested at various doses in mucoepidermoid pulmonary carcinoma cell line […]. A control oligonucleotide 792169 was also tested.\nCultured NCI H292 cells at a density of 5000 cells per well were treated using free uptake with modified oligonucleotides diluted to concentrations described in the tables below. After approximately 48 hours, Yap1 mRNA levels were measured as previously described using the Human Yap1 primer-probe set RTS4814. Yap1 mRNA levels were normalized to actin-beta content, as measured by primer probe set RTS5002. Results are presented in the tables below as percent control of the amount of Yap1 mRNA relative to untreated control cells (% UTC)."}, "BICR-22 cells": {"system": "BICR-22 cells", "experiment": "Cell proliferation assay in BICR-22 cells, CellTiter-Glo (Example 35)", "settings": "free uptake, approximately 144 hours", "procedure": "Modified oligonucleotides described in the studies above were tested at various doses in tongue squamous carcinoma (lymph node metastasis) cell line BICR-22. A control oligonucleotide 792169, described herein above, was also tested.\nCultured BICR-22 cells at a density of 1000 cells/well were treated using free uptake with modified oligonucleotides diluted to concentrations described in the tables below. After approximately 144 hours, cell proliferation was measured using the luminescent cell viability CellTiter-Glo® 2.0 Assay (Promega). Results are presented in the tables below as percent control of the amount of luminescence in samples treated with modified oligonucleotides relative to untreated control cells (% UTC)."}, "CAL27 cells": {"system": "CAL27 cells", "experiment": "Cell proliferation assay in CAL27 cells, CellTiter-Glo (Example 37)", "settings": "free uptake, approximately 144 hours", "procedure": "Modified oligonucleotides described in the studies above were tested at various doses in tongue squamous cell carcinoma line CAL27. A control oligonucleotide 792169, described herein above, was also tested.\nCultured CAL27 cells at a density of 1000 cells/well were treated using free uptake with modified oligonucleotides diluted to concentrations described in the tables below. After approximately 144 hours, cell proliferation was measured using the luminescent cell viability CellTiter-Glo® 2.0 Assay (Promega). Results are presented in the tables below as percent control of the amount of luminescence in samples treated with modified oligonucleotides relative to untreated control cells (% UTC)."}, "Yap1 mRNA [2]": {"system": "Yap1 mRNA", "experiment": "Yap1 mRNA in SCC-15 cells, RNA analysis (Example 41)", "settings": "free uptake, approximately 48 hours", "procedure": "(§1) Modified oligonucleotides described in the studies above were tested at various doses in tongue squamous cell carcinoma cell line SCC-15. A control oligonucleotide 792169, described herein above, was also tested.\nCultured SCC-15 cells at a density of 5000 cells per well were treated using free uptake with modified oligonucleotides diluted to concentrations described in the tables below. After approximately 48 hours, Yap1 mRNA levels were measured as previously described using the Human Yap1 primer-probe set RTS4814. Yap1 mRNA levels were normalized to actin-beta content, as measured by primer probe set RTS5002. Results are presented in the tables below as percent control of the amount of Yap1 mRNA relative to untreated control cells (% UTC)."}, "SCC-15 cells": {"system": "SCC-15 cells", "experiment": "Cell proliferation assay in SCC-15 cells, CellTiter-Glo (Example 41)", "settings": "free uptake, approximately 144 hours", "procedure": "as §1\nCultured SCC-15 cells at a density of 1000 cells/well were treated using free uptake with modified oligonucleotides diluted to concentrations described in the tables below. After approximately 144 hours, cell proliferation was measured using the luminescent cell viability CellTiter-Glo® 2.0 Assay (Promega). Results are presented in the tables below as percent control of the amount of luminescence in samples treated with modified oligonucleotides relative to untreated control cells (% UTC)."}, "SCC-25 cells": {"system": "SCC-25 cells", "experiment": "Cell proliferation assay in SCC-25 cells, CellTiter-Glo (Example 42)", "settings": "free uptake, approximately 144 hours", "procedure": "Modified oligonucleotides described in the studies above were tested at various doses in tongue squamous cell carcinoma cell line SCC-25. A control oligonucleotide 792169, described herein above, was also tested.\nCultured SCC-25 cells at a density of 1000 cells/well were treated using free uptake with modified oligonucleotides diluted to concentrations described in the tables below. After approximately 144 hours, cell proliferation was measured using the luminescent cell viability CellTiter-Glo® 2.0 Assay (Promega). Results are presented in the tables below as percent control of the amount of luminescence in samples treated with modified oligonucleotides relative to untreated control cells (% UTC)."}, "Yap1 mRNA [3]": {"system": "Yap1 mRNA", "experiment": "Yap1 mRNA in SNU-1076 cells, RNA analysis (Example 45)", "settings": "free uptake, approximately 48 hours", "procedure": "Modified oligonucleotides described in the studies above were tested at various doses in upper aerodigestive tract/laryngeal squamous cell carcinoma line SNU-1076. A control oligonucleotide 792169, described herein above, was also tested.\nCultured SNU-1076 cells at a density of 5000 cells per well were treated using free uptake with modified oligonucleotides diluted to concentrations described in the tables below. After approximately 48 hours, Yap1 mRNA levels were measured as previously described using the Human Yap1 primer-probe set RTS4814. Yap1 mRNA levels were normalized to actin-beta content, as measured by primer probe set RTS5002. Results are presented in the tables below as percent control of the amount of Yap1 mRNA relative to untreated control cells (% UTC)."}, "SNU-1214 cells": {"system": "SNU-1214 cells", "experiment": "Cell proliferation assay in SNU-1214 cells, CellTiter-Glo (Example 46)", "settings": "free uptake, approximately 144 hours", "procedure": "Modified oligonucleotides described in the studies above were tested at various doses in laryngeal squamous cell carcinoma cell line […]. A control oligonucleotide 792169, described herein above, was also tested.\nCultured SNU-1214 cells at a density of 1000 cells/well were treated using free uptake with modified oligonucleotides diluted to concentrations described in the tables below. After approximately 144 hours, cell proliferation was measured using the luminescent cell viability CellTiter-Glo® 2.0 Assay (Promega). Results are presented in the tables below as percent control of the amount of luminescence in samples treated with modified oligonucleotides relative to untreated control cells (% UTC)."}}, "data": [{"substance": "1198440 (AAGTGTATGTCAGAAG; cEt, 2'-MOE, 5-methylcytosine, phosphorothioate modifications, further chemistry not given here) [compound 1198440]", "values": [{"measurement": "human Yap1 mRNA expression", "setting": "Yap1 mRNA [1]; 0.04 μM", "result": 89, "unit": "% UTC"}, {"measurement": "human Yap1 mRNA expression", "setting": "Yap1 mRNA [1]; 0.2 μM", "result": 53, "unit": "% UTC"}, {"measurement": "human Yap1 mRNA expression", "setting": "Yap1 mRNA [1]; 1 μM", "result": 18, "unit": "% UTC"}, {"measurement": "human Yap1 mRNA expression", "setting": "Yap1 mRNA [1]; 5 μM", "result": 5, "unit": "% UTC"}, {"measurement": "Antiproliferative effect (cell proliferation, luminescence)", "setting": "BICR-22 cells; 0.04 μM", "result": 55, "unit": "% UTC"}, {"measurement": "Antiproliferative effect (cell proliferation, luminescence)", "setting": "BICR-22 cells; 0.2 μM", "result": 37, "unit": "% UTC"}, {"measurement": "Antiproliferative effect (cell proliferation, luminescence)", "setting": "BICR-22 cells; 1 μM", "result": 29, "unit": "% UTC"}, {"measurement": "Antiproliferative effect (cell proliferation, luminescence)", "setting": "BICR-22 cells; 5 μM", "result": 19, "unit": "% UTC"}, {"measurement": "Antiproliferative effect (cell proliferation, luminescence)", "setting": "CAL27 cells; 0.08 μM", "result": 86, "unit": "% UTC"}, {"measurement": "Antiproliferative effect (cell proliferation, luminescence)", "setting": "CAL27 cells; 0.4 μM", "result": 85, "unit": "% UTC"}, {"measurement": "Antiproliferative effect (cell proliferation, luminescence)", "setting": "CAL27 cells; 2 μM", "result": 83, "unit": "% UTC"}, {"measurement": "Antiproliferative effect (cell proliferation, luminescence)", "setting": "CAL27 cells; 10 μM", "result": 51, "unit": "% UTC"}, {"measurement": "human Yap1 mRNA expression", "setting": "Yap1 mRNA [2]; 0.04 μM", "result": 39, "unit": "% UTC"}, {"measurement": "human Yap1 mRNA expression", "setting": "Yap1 mRNA [2]; 0.2 μM", "result": 10, "unit": "% UTC"}, {"measurement": "human Yap1 mRNA expression", "setting": "Yap1 mRNA [2]; 1 μM", "result": 4, "unit": "% UTC"}, {"measurement": "human Yap1 mRNA expression", "setting": "Yap1 mRNA [2]; 5 μM", "result": 2, "unit": "% UTC"}, {"measurement": "Antiproliferative effect (cell proliferation, luminescence)", "setting": "SCC-15 cells; 0.04 μM", "result": 72, "unit": "% UTC"}, {"measurement": "Antiproliferative effect (cell proliferation, luminescence)", "setting": "SCC-15 cells; 0.2 μM", "result": 54, "unit": "% UTC"}, {"measurement": "Antiproliferative effect (cell proliferation, luminescence)", "setting": "SCC-15 cells; 1 μM", "result": 42, "unit": "% UTC"}, {"measurement": "Antiproliferative effect (cell proliferation, luminescence)", "setting": "SCC-15 cells; 5 μM", "result": 32, "unit": "% UTC"}, {"measurement": "Antiproliferative effect (cell proliferation, luminescence)", "setting": "SCC-25 cells; 0.08 μM", "result": 56, "unit": "% UTC"}, {"measurement": "Antiproliferative effect (cell proliferation, luminescence)", "setting": "SCC-25 cells; 0.4 μM", "result": 27, "unit": "% UTC"}, {"measurement": "Antiproliferative effect (cell proliferation, luminescence)", "setting": "SCC-25 cells; 2 μM", "result": 20, "unit": "% UTC"}, {"measurement": "Antiproliferative effect (cell proliferation, luminescence)", "setting": "SCC-25 cells; 10 μM", "result": 16, "unit": "% UTC"}, {"measurement": "human Yap1 mRNA expression", "setting": "Yap1 mRNA [3]; 0.04 μM", "result": 83, "unit": "% UTC"}, {"measurement": "human Yap1 mRNA expression", "setting": "Yap1 mRNA [3]; 0.2 μM", "result": 43, "unit": "% UTC"}, {"measurement": "human Yap1 mRNA expression", "setting": "Yap1 mRNA [3]; 1 μM", "result": 11, "unit": "% UTC"}, {"measurement": "human Yap1 mRNA expression", "setting": "Yap1 mRNA [3]; 5 μM", "result": 3, "unit": "% UTC"}, {"measurement": "Antiproliferative effect (cell proliferation, luminescence)", "setting": "SNU-1214 cells; 0.04 μM", "result": 84, "unit": "% UTC"}, {"measurement": "Antiproliferative effect (cell proliferation, luminescence)", "setting": "SNU-1214 cells; 0.2 μM", "result": 72, "unit": "% UTC"}, {"measurement": "Antiproliferative effect (cell proliferation, luminescence)", "setting": "SNU-1214 cells; 1 μM", "result": 53, "unit": "% UTC"}, {"measurement": "Antiproliferative effect (cell proliferation, luminescence)", "setting": "SNU-1214 cells; 5 μM", "result": 49, "unit": "% UTC"}]}]}
